Source: patent publication US20100093777A1 (Takeda Pharmaceutical Company Limited, priority 2007, published 2010)

Legend:
Human ACC1 = molecular target: T1, Human ACC1 (Homo sapiens, UniProt Q13085); assay: Measurement of ACC1 inhibitory activity (recombinant enzyme, malachite green absorbance); type: biochemical; details: recombinant human ACC1 8 μg/ml; 30° C.; 200 μM ATP, 200 μM Acetyl-CoA; absorbance 620 nm
T1 construct: His tag (from the pFAST-BacHTc vector); own knowledge: N-terminal 6xHis with TEV site; made in house; host or cells: SF-9 insect cells, recombinant baculovirus BAC-ACC1
Protocol: The ACC1 inhibitory action of the compound of the present invention was evaluated by the following method.
Human ACC1 gene was cloned by PCR using a human liver cDNA library (Clontech) as a template and Primer 1 and Primer 2 shown below. Primer 1 and Primer 2 were prepared by adding SalI, NotI restriction enzyme recognition sequence based on the information of the base sequence (Genbank Accession U19822) of human ACC1 gene.
(§1) PCR was performed using a Pyrobest DNA polymerase (TAKARA BIO INC.) The obtained PCR product was cloned to pT7 Blue vector (Novagen) and, after confirmation of the base sequence, digested with restriction enzymes SalI and NotI. The obtained DNA fragment was inserted to pFAST-BacHTc (Invitrogen) digested with restriction enzymes SalI and NotI to give expression plasmid ACC1/pFAST-BacHTc.
Using the expression plasmid and BAC-TO-BAC Baculovirus Expression System (Invitrogen), virus stock BAC-ACC1 of recombinant Baculovirus was prepared.
SF-9 cells (Invitrogen) were inoculated to a medium (1 L) for insect cells (Sf-900IISFM medium (Invitrogen) containing 10% fetal bovine serum (Trace), 50 mg/L Gentamicin (Invitrogen) and 0.1% Pluronic F-68 (Invitrogen)) at 1×10^6 cells/mL, and cultured with shaking at 27° C., 100 rpm in a 2 L Erlenmeyer flask.
After 24 hr of the culture, recombinant Baculovirus BAC-ACC1 (10 mL) was added, and the cells were further cultured for 3 days. The culture medium was centrifuged at 1000×g for 5 min to give virus-infected cells. The cells were washed with phosphate buffered saline (Invitrogen), and centrifuged under the same conditions, and the obtained cells were cryopreserved at −80° C.
The cryopreserved cells were thawed in ice and suspended in 100 mL of 25 mM HEPES buffer (pH 7.5) containing 10% Glycerol, 0.13 M NaCl, 1 mM EDTA, 25 mM Sodium β-Glycerophosphate and 1 mM Sodium Orthovanadate, and supplemented with Complete Protease Inhibitor (Nippon Boehringer Ingelheim Co., Ltd.). The obtained suspension was homogenized 3 times in a polytron homogenizer (Kinematica) at 20,000 rpm for 30 sec. The obtained cell disruption solution was clarified by centrifugation at 185700×g for 50 min, and filtered through a 0.45 μm filter. The filtrate was passed through a column packed with 12 mL of Ni-NTA Super Flow Gel (QUIAGEN) at a flow rate of about 5 mL/min. The column was washed with buffer A (50 mM HEPES (pH 7.5) containing 0.3 M NaCl), further washed with buffer A containing 20 mM Imidazole, and eluted with buffer A containing 100 mM Imidazole. The eluate was concentrated with Vivaspin 20 (Vivascience) with a molecular weight cut off of 30K. The obtained concentrate was dialyzed against Sephadex G-25 (Amersham Biosciences, 358 ml) equilibrated with 50 mM HEPES (pH 7.5) containing 10 mM MgCl2, 2 mM Dithiothreitol, 10 mM Tripotassium Citrate and 0.3 M NaCl. The inner dialysate was concentrated with Vivaspin 20 (Vivascience) with a molecular weight cut off of 30K, and the concentrate was filtered through a 0.22 μm filter to give ACC1. The obtained ACC1 was cryopreserved at −80° C.
ACC1 (0.93 mg/ml) obtained in the above-mentioned (2) was diluted with an enzyme reaction buffer (50 mM HEPES (pH 7.5), 10 mM MgCl2, 10 mM Tripotassium Citrate, 2 mM Dithiothreitol, 0.75 mg/ml Fatty acid free BSA) to concentration of 8 μg/ml, and the mixture was added to each well of 384 well assay plate (Nunc 265196) by 10 μl.
Thereafter, ACC1 inhibitory rate (%) was measured in the same manner as in the below-mentioned Experimental Example 2-(3), and IC50 value was calculated.
ACC2 (Nd) (1.1 mg/ml) obtained in the above-mentioned (2) was diluted with an enzyme reaction buffer (50 mM HEPES (pH 7.5), 10 mM MgCl2, 10 mM Tripotassium Citrate, 2 mM Dithiothreitol, 0.75 mg/ml Fatty acid free BSA) to a concentration of 6.4 μg/ml, and the mixture was added to each well of a 384 well assay plate (Nunc 265196) by 10 μl. […]

[1] = molecular target: T2, Human ACC2 (Nd, N terminal deleted) (Homo sapiens, UniProt O00763); assay: Measurement of ACC2 inhibitory activity (recombinant ACC2 (Nd), malachite green absorbance); type: biochemical; details: recombinant human ACC2 (Nd) 6.4 μg/ml; 30° C.; 200 μM ATP, 200 μM Acetyl-CoA; absorbance 620 nm
T2 construct: His tag (from the pFAST-BacHTa vector); own knowledge: N-terminal 6xHis with TEV site; made in house; host or cells: SF-9 insect cells, recombinant baculovirus BAC-ACC2 (Nd)
Protocol: The ACC2 inhibitory action of the compound of the present invention was evaluated by the following method.
Human ACC2 gene was cloned by PCR using a human skeletal muscle cDNA library (Clontech) as a template and Primer 1 and Primer 2 shown below. Primer 1 and Primer 2 were prepared by adding SalI, XbaI restriction enzyme recognition sequences based on the information of the base sequence (Genbank Accession U89344) of human ACC2 gene.
as §1, with “using” for “using a”, “INC.).” for “INC.)”, “XbaI.” for “NotI.”, “into pFAST-BacHTa” for “to pFAST-BacHTc”, “XbaI” for “NotI”, “ACC2/pFAST-BacHTa.” for “ACC1/pFAST-BacHTc.”
PCR was performed using the expression plasmid as a template and Primer 3 and Primer 4 shown below to prepare a plasmid to be used for expression of ACC2 free of mitochondrial targeting sequence.
as §1, with “Pyrobest-DNA” for “a Pyrobest DNA”, “INC.).” for “INC.)”, “AflII.” for “NotI.”, “into pFAST-BacHTa” for “to pFAST-BacHTc”, “AflII” for “NotI”, “ACC2mito7/pFAST-BacHTa.” for “ACC1/pFAST-BacHTc.”
Using the expression plasmid and BAC-TO-BAC Baculovirus Expression System (Invitrogen), virus stock BAC-ACC2 (N terminal deleted (hereinafter Nd)) of recombinant Baculovirus was prepared.
SF-9 cells (Invitrogen) were inoculated to a medium (2 L) for insect cells (Sf-900IISFM medium (Invitrogen) containing 10% fetal bovine serum (Trace), 50 mg/L Gentamicin (Invitrogen), 0.1% Pluronic F-68 (Invitrogen)) at 0.5×10^6 cells/mL, and cultured with shaking in Wave Bioreactor (Wave) at 27° C., 20 rpm, rocking angle […], oxygen concentration 30%.
On day 4 of the culture, 3 L of the medium for insect cells was added, the rocking angle was set to 8°, and the cells were cultured. On day 5 of the culture, 100 mL of recombinant Baculovirus BAC-ACC2 (Nd) was added, 5 L of the medium for insect cells was further added, the rocking angle was set to 11°, and the cells were cultured for 3 days. The culture medium was centrifuged at 1000×g for 10 min to give virus-infected cells. The cells were washed with phosphate buffered saline (Invitrogen) and centrifuged under the same conditions. The obtained cells were cryopreserved at −80° C.
The cryopreserved cells were thawed in ice and suspended in 900 mL of 25 mM HEPES buffer (pH 7.5) containing 10% Glycerol, 0.13 M NaCl, 1 mM EDTA, 25 mM Sodium βGlycerophosphate and 1 mM Sodium Orthovanadate, and supplemented with Complete Protease Inhibitor (Nippon Boehringer Ingelheim Co., Ltd.). The obtained suspension was homogenized 3 times in a polytron homogenizer (Kinematica) at 20,000 rpm for 30 sec. The obtained cell disruption solution was clarified by centrifugation at 31000×g for 60 min, and filtered through a 0.45 μm filter. The filtrate was passed through a column packed with 60 mL of Ni-NTA Super Flow Gel (QUIAGEN) at a flow rate of about 5 mL/min. The column was washed with buffer A (50 mM HEPES (pH 7.5) containing 0.3 M NaCl), further washed with buffer A containing 20 mM Imidazole, and eluted with buffer A containing 100 mM Imidazole. The eluate was concentrated with Vivaspin 20 (Vivascience) with a molecular weight cut off of 30K. The obtained concentrate was dialyzed against 50 mM HEPES (pH 7.5) containing 10 mM MgCl2, 2[…] Dithiothreitol, 10 mM Tripotassium Citrate and 0.3 M NaCl. The inner dialysate was filtered through a 0.22 μm filter to give ACC2 (Nd). The obtained ACC2 (Nd) was cryopreserved at −80° C.
A test compound was dissolved in dimethyl sulfoxide (DMSO) and the mixture was diluted with an enzyme reaction buffer and the resulting solution (5 μl) was added to each well.

T2 sequence (O00763 117-2458 limits assumed, stated change not applied): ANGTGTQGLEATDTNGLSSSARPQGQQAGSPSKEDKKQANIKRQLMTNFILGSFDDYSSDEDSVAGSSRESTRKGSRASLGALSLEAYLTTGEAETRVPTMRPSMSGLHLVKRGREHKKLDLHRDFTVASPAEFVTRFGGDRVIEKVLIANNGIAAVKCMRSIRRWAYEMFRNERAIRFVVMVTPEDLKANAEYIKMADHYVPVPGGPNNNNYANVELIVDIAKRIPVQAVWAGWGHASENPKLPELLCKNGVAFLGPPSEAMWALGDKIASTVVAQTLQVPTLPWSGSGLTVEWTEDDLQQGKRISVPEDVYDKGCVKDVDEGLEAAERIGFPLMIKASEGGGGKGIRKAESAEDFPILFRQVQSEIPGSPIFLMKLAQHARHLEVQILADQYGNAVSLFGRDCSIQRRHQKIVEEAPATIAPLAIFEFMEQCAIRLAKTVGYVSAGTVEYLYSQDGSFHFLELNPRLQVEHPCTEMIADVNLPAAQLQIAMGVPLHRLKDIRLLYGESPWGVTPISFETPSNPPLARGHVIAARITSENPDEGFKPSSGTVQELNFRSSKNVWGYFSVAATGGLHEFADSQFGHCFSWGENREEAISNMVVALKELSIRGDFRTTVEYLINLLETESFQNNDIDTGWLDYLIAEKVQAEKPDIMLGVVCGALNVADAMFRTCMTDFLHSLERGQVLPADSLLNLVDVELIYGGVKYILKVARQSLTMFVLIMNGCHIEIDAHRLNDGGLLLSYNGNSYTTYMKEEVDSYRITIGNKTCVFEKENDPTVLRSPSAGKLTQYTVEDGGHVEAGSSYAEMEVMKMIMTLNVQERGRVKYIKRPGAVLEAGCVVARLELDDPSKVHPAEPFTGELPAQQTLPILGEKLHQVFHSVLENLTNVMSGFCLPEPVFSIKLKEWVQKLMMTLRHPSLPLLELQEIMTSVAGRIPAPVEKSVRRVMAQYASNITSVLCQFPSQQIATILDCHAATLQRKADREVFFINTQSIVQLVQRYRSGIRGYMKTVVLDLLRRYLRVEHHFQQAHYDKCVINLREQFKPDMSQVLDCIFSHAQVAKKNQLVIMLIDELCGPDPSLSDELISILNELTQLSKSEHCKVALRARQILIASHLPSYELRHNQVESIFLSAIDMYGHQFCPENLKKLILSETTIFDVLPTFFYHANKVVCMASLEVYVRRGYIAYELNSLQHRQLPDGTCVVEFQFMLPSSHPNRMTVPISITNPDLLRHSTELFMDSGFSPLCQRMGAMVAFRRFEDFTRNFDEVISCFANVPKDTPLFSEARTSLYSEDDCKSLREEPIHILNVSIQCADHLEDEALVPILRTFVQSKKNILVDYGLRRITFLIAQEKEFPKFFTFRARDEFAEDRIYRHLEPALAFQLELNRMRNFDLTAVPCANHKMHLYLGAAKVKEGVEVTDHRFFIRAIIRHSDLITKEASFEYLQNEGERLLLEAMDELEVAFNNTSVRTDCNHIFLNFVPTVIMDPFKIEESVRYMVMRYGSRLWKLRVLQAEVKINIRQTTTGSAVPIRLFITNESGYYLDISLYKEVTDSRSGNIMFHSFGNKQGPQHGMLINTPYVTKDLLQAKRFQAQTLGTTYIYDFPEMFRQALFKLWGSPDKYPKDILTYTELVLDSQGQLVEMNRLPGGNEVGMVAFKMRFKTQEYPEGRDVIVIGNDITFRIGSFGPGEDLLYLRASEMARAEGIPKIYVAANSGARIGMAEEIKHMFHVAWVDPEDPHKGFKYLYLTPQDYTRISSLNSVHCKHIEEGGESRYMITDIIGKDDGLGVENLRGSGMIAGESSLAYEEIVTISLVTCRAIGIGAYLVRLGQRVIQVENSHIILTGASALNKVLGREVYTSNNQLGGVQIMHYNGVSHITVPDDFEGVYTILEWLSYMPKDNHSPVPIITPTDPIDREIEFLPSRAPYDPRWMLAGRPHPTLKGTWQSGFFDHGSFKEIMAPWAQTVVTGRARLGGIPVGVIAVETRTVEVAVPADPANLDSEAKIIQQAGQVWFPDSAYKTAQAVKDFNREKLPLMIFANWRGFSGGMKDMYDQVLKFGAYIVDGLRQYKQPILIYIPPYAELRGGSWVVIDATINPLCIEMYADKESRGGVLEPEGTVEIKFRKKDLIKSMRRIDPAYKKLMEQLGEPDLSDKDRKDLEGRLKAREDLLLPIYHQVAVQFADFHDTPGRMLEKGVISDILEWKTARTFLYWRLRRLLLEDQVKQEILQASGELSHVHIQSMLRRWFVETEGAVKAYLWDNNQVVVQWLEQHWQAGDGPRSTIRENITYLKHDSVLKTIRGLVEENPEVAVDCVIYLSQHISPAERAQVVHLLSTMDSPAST

SMILES | IC50 (Human ACC1) [nM] | IC50 [1] [nM]
CNC(=O)Nc1sc2ncccc2c1C(=O)N1CCC(N2CCCC3(C2)CC(C)(C)OC3=O)CC1 (single isomer, unassigned) [Example 14, N-(3-{[4-(3,3-dimethyl-1-oxo-2-oxa-7-azaspiro[4.5]dec-7-yl)piperidin-1-yl]carbonyl}thieno[2,3-b]pyridin-2-yl)-N′-methylurea] | 10 to 100 | 1 to 10
CNC(=O)Nc1sc2nc(C)ccc2c1C(=O)N1CCC(N2CCCC3(CC(=O)N(C(C)C)C3=O)C2)CC1 (single isomer, unassigned) [Example 18, N-(3-{[4-(2-isopropyl-1,3-dioxo-2,7-diazaspiro[4.5]dec-7-yl)piperidin-1-yl]carbonyl}-6-methylthieno[2,3-b]pyridin-2-yl)-N′-methylurea] | 10 to 100 | 1 to 10
CCNC(=O)Nc1sc2nc(C)ccc2c1C(=O)N1CCC(N2CCCC3(CC(=O)N(C(C)C)C3=O)C2)CC1 (single isomer, unassigned) [Example 19, N-ethyl-N′-(3-{[4-(2-isopropyl-1,3-dioxo-2,7-diazaspiro[4.5]dec-7-yl)piperidin-1-yl]carbonyl}-6-methylthieno[2,3-b]pyridin-2-yl)urea] | 10 to 100 | 
CNC(=O)Nc1sc2nc(C)ccc2c1C(=O)N1CCC(N2CCCC3(C2)CC(C)(C)OC3=O)CC1 (single isomer, unassigned) [Example 27, N-(3-{[4-(3,3-dimethyl-1-oxo-2-oxa-7-azaspiro[4.5]dec-7-yl)piperidin-1-yl]carbonyl}-6-methylthieno[2,3-b]pyridin-2-yl)-N′-methylurea] | 10 to 100 | 1 to 10
CCNC(=O)Nc1sc2nc(C)ccc2c1C(=O)N1CCC(N2CCCC3(C2)CC(C)(C)OC3=O)CC1 (single isomer, unassigned) [Example 28, N-(3-{[4-(3,3-dimethyl-1-oxo-2-oxa-7-azaspiro[4.5]dec-7-yl)piperidin-1-yl]carbonyl}-6-methylthieno[2,3-b]pyridin-2-yl)-N′-ethylurea] | 10 to 100 | 1 to 10
CCNC(=O)Nc1sc2nc(C)ccc2c1C(=O)N1CCC(N2CCCC3(CCN(C(C)C)C3=O)C2)CC1 (single isomer, unassigned) [Example 65, N-ethyl-N′-(3-{[4-(2-isopropyl-1-oxo-2,7-diazaspiro[4.5]dec-7-yl)piperidin-1-yl]carbonyl}-6-methylthieno[2,3-b]pyridin-2-yl)urea] | 10 to 100 | 1 to 10
CNC(=O)Nc1sc2ncccc2c1C(=O)N1CCC(N2CCCC3(C2)SC(=O)N(C(C)C)C3=O)CC1 (stereo not shown) [Example 11, N-(3-{[4-(3-isopropyl-2,4-dioxo-1-thia-3,7-diazaspiro[4.5]dec-7-yl)piperidin-1-yl]carbonyl}thieno[2,3-b]pyridin-2-yl)-N′-methylurea] | 10 to 100 | 
CNC(=O)Nc1sc2nc(C)ccc2c1C(=O)N1CCC(N2CCCC3(C2)SC(=O)N(C(C)C)C3=O)CC1 (stereo not shown) [Example 31, N-(3-{[4-(3-isopropyl-2,4-dioxo-1-thia-3,7-diazaspiro[4.5]dec-7-yl)piperidin-1-yl]carbonyl}-6-methylthieno[2,3-b]pyridin-2-yl)-N′-methylurea] | 10 to 100 | 
CCNC(=O)Nc1sc2nc(C)ccc2c1C(=O)N1CCC(N2CCCC3(C2)N=C(C)N(C(C)C)C3=O)CC1 (stereo not shown) [Example 52] | 10 to 100 | 
CCNC(=O)Nc1sc2nc(C)c(C)cc2c1C(=O)N1CCC(N2CCCC3(C2)N=C(C)N(C(C)C)C3=O)CC1 (stereo not shown) [Example 56] | 10 to 100 | 1 to 10
CNC(=O)Nc1sc2nc(C)c(C)cc2c1C(=O)N1CCC(N2CCCC3(C2)CC(C)(C)OC3=O)CC1 (stereo not shown) [Example 74] |  | 1 to 10
CCNC(=O)Nc1sc2nc(C)c(C)cc2c1C(=O)N1CCC(N2CCCC3(C2)CC(C)(C)OC3=O)CC1 (stereo not shown) [Example 75] |  | 1 to 10
CCNC(=O)Nc1sc2nc(C(F)(F)F)ccc2c1C(=O)N1CCC(N2CCCC3(CC(=O)N(C(C)C)C3=O)C2)CC1 (stereo not shown) [Example 96, N-ethyl-N′-[3-{[4-(2-isopropyl-1,3-dioxo-2,7-diazaspiro[4.5]dec-7-yl)piperidin-1-yl]carbonyl}-6-(trifluoromethyl)thieno[2,3-b]pyridin-2-yl]urea] | 10 to 100 | 
